Experimental data as given in US20230114728A1 (Venatorx Pharmaceuticals, Inc., priority 2019, published 2023).
Values after ≈ are worked out from the molar mass of the structure shown.

Columns and labels:
Type in all cases: cell-based
E. coli D22 = assay: Broth microdilution MIC in CAMHB; conditions: Escherichia coli; E. coli D22 (hyper-permeable); MHB; read-out: Minimum Inhibitory Concentration, E. coli D22
Summary of the method: (§1)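 Hyper-permeable or efflux-deficient strains serve to probe outer-membrane penetration. Growth inhibition is scored visually after 16-20 h at 37° C in CAMHB, starting from 2-8×10^5 CFU/mL.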

P. aeruginosa ATCC 35151 = assay: Broth microdilution MIC in CAMHB; conditions: Pseudomonas aeruginosa, ATCC35151; MHB; hyper-permeable strain; read-out: Minimum Inhibitory Concentration, P. aeruginosa ATCC 35151
Summary of the method: as §1

E. coli AG100A = assay: Broth microdilution MIC in CAMHB; conditions: Escherichia coli, read-out: Minimum Inhibitory Concentration, E. coli AG100A
Summary of the method: as §1

E. coli ATCC 25922 = assay: Broth microdilution MIC in CAMHB; conditions: Escherichia coli, ATCC25922; E. coli ATCC 25922; MHB; read-out: Minimum Inhibitory Concentration, E. coli 25922
Summary of the method: as §1

[1] = test system: K. pneumoniae SI-117 producing VIM-1; assay: Broth microdilution MIC in CAMHB; conditions: Klebsiella pneumoniae, read-out: Minimum Inhibitory Concentration, K. pneumoniae SI-117
Summary of the method: as §1

N. gonorrhoeae WHO L = assay: Liquid broth MIC in Fastidious broth; conditions: Neisseria gonorrhoeae; N. gonorrhoeae strain WHO L; Fastidious broth; read-out: Minimum Inhibitory Concentration, N. gonorrhoeae WHO L
Summary of the method: (§2)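 Colonies were swabbed from chocolate agar after 24 h growth and standardised by optical density at 600 nm. Compounds were serially diluted twofold in Fastidious broth, and bacteria added to give 5×10^5 CFU/mL. After about 24 h at 36 °C in 5% CO2, the lowest concentration allowing under 10% growth was taken as MIC.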

N. gonorrhoeae WHO Z = assay: Liquid broth MIC in Fastidious broth; conditions: Neisseria gonorrhoeae, read-out: Minimum Inhibitory Concentration, N. gonorrhoeae WHO Z
Summary of the method: (§3)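 MIC = lowest concentration giving <10% growth relative to untreated wells, scored by eye after ~24 h at 36 °C, 5% CO2. Strains carry mosaic PBP2; inoculum 5×10^5 CFU/mL in Fastidious broth with 2-fold serial compound dilutions.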

[2] = test system: N. gonorrhoeae ATCC 49226; assay: Liquid broth MIC in Fastidious broth; conditions: Neisseria gonorrhoeae, ATCC49226; N. gonorrhoeae strain ATCC 49226; Fastidious broth; read-out: Minimum Inhibitory Concentration, N. gonorrhoeae ATCC 49226
Summary of the method: as §2

N. gonorrhoeae WHO Q = assay: Liquid broth MIC in Fastidious broth; conditions: Neisseria gonorrhoeae, read-out: Minimum Inhibitory Concentration, N. gonorrhoeae WHO Q
Summary of the method: as §3

N. gonorrhoeae WHO K = assay: Liquid broth MIC in Fastidious broth; conditions: Neisseria gonorrhoeae, read-out: Minimum Inhibitory Concentration, N. gonorrhoeae WHO K
Summary of the method: as §3

N. gonorrhoeae WHO G = assay: Liquid broth MIC in Fastidious broth; conditions: Neisseria gonorrhoeae; N. gonorrhoeae strain WHO G; Fastidious broth; read-out: Minimum Inhibitory Concentration, N. gonorrhoeae WHO G
Summary of the method: as §2

N. gonorrhoeae FA1090 = assay: Liquid broth MIC in Fastidious broth; conditions: Neisseria gonorrhoeae; N. gonorrhoeae strain FA1090; Fastidious broth; read-out: Minimum Inhibitory Concentration, N. gonorrhoeae FA1090
Summary of the method: as §2

N. gonorrhoeae H041 = assay: Liquid broth MIC in Fastidious broth; conditions: Neisseria gonorrhoeae, H041, read-out: Minimum Inhibitory Concentration, N. gonorrhoeae H041
Summary of the method: as §3

In the case of NCCN1CCN(C(=O)NC(C(=O)N[C@H]2Cc3cccc(C(=O)O)c3OB2O)c2ccc(C(=O)O)c(Cl)c2)C(=O)C1=O (stereo partly drawn) [Example 153, (3R)-3-(2-(4-(2-aminoethyl)-2,3-dioxopiperazine-1-carboxamido)-2-(4-carboxy-3-chlorophenyl)acetamido)-2-hydroxy-3,4-dihydro-2H-benzo[e][1,2]oxaborinine-8-carboxylic acid], the MIC (E. coli D22) is reported as 2 to 4 mg/L (≈ 3.32 to 6.65 µM), the MIC (P. aeruginosa ATCC 35151) is reported as 0.5 to 1 mg/L (≈ 0.831 to 1.66 µM) and the MIC (E. coli AG100A) is reported as 8 to 16 mg/L (≈ 13.3 to 26.6 µM). It also gave an MIC (E. coli ATCC 25922) of 32 to 64 mg/L (≈ 53.2 to 106 µM), an MIC [1] greater than 128 mg/L and an MIC (N. gonorrhoeae WHO L) greater than 64 mg/L. It also gave an MIC (N. gonorrhoeae WHO Z) of 16 to 32 mg/L (≈ 26.6 to 53.2 µM), an MIC [2] of 16 to 32 mg/L (≈ 26.6 to 53.2 µM) and an MIC (N. gonorrhoeae WHO Q) of 16 to 32 mg/L (≈ 26.6 to 53.2 µM). It also gave an MIC (N. gonorrhoeae WHO K) of 16 to 32 mg/L (≈ 26.6 to 53.2 µM), an MIC (N. gonorrhoeae WHO G) of 4 to 8 mg/L (≈ 6.65 to 13.3 µM) and an MIC (N. gonorrhoeae FA1090) of 1 to 2 mg/L (≈ 1.66 to 3.32 µM). It also gave an MIC (N. gonorrhoeae H041) greater than 64 mg/L.
Molecule NCCN1CCN(C(=O)N[C@H](C(=O)N[C@H]2Cc3cccc(C(=O)O)c3OB2O)c2c(F)cc(O)cc2F)C(=O)C1=O (single isomer, unassigned) [Example 110] has an MIC (E. coli D22) of 32 to 64 mg/L (≈ 55.6 to 111 µM), an MIC (P. aeruginosa ATCC 35151) of 8 to 16 mg/L (≈ 13.9 to 27.8 µM) and an MIC (E. coli AG100A) of 8 to 16 mg/L (≈ 13.9 to 27.8 µM). The MIC (E. coli ATCC 25922) was greater than 128 mg/L, the MIC [1] was greater than 128 mg/L and the MIC (N. gonorrhoeae WHO L) was greater than 64 mg/L. It also gave an MIC (N. gonorrhoeae WHO Z) greater than 64 mg/L, an MIC [2] greater than 64 mg/L and an MIC (N. gonorrhoeae WHO Q) greater than 64 mg/L. The MIC (N. gonorrhoeae WHO K) was greater than 64 mg/L, the MIC (N. gonorrhoeae WHO G) was greater than 64 mg/L and the MIC (N. gonorrhoeae FA1090) was 16 to 32 mg/L (≈ 27.8 to 55.6 µM). The MIC (N. gonorrhoeae H041) was greater than 64 mg/L.
For CCN1CCN(C(=O)N[C@@H](C(=O)N[C@H]2Cc3cccc(C(=O)O)c3OB2O)c2ccc(C(=O)O)cc2O)C(=O)C1=O (single isomer, unassigned) [Example 144], the MIC (E. coli D22) was 2 to 4 mg/L (≈ 3.52 to 7.04 µM), the MIC (P. aeruginosa ATCC 35151) was 0.5 to 1 mg/L (≈ 0.88 to 1.76 µM) and the MIC (E. coli AG100A) was 8 to 16 mg/L (≈ 14.1 to 28.2 µM). The MIC (E. coli ATCC 25922) was 32 to 64 mg/L (≈ 56.3 to 113 µM), the MIC [1] was greater than 128 mg/L and the MIC (N. gonorrhoeae WHO L) was 4 to 8 mg/L (≈ 7.04 to 14.1 µM). For the same molecule, the MIC (N. gonorrhoeae WHO Z) was 4 to 8 mg/L (≈ 7.04 to 14.1 µM), the MIC [2] was 1 to 2 mg/L (≈ 1.76 to 3.52 µM) and the MIC (N. gonorrhoeae WHO Q) was 4 to 8 mg/L (≈ 7.04 to 14.1 µM). The MIC (N. gonorrhoeae WHO K) was 16 to 32 mg/L (≈ 28.2 to 56.3 µM), the MIC (N. gonorrhoeae WHO G) was 0.25 to 0.5 mg/L (≈ 0.44 to 0.88 µM) and the MIC (N. gonorrhoeae FA1090) was less than 0.125 mg/L. It also gave an MIC (N. gonorrhoeae H041) of 16 to 32 mg/L (≈ 28.2 to 56.3 µM).
In the case of CCN1CCN(C(=O)N[C@@H](C(=O)N[C@H]2Cc3cccc(C(=O)O)c3OB2O)c2cc(F)c(C(=O)O)cc2Cl)C(=O)C1=O (single isomer, unassigned) [Example 148], the MIC (E. coli D22) is reported as 2 to 4 mg/L (≈ 3.31 to 6.61 µM), the MIC (P. aeruginosa ATCC 35151) is reported as less than 0.25 mg/L and the MIC (E. coli AG100A) is reported as 8 to 16 mg/L (≈ 13.2 to 26.5 µM). It also gave an MIC (E. coli ATCC 25922) greater than 128 mg/L, an MIC [1] greater than 128 mg/L and an MIC (N. gonorrhoeae WHO L) greater than 64 mg/L. For the same molecule, the MIC (N. gonorrhoeae WHO Z) was 4 to 8 mg/L (≈ 6.61 to 13.2 µM), the MIC [2] was 4 to 8 mg/L (≈ 6.61 to 13.2 µM) and the MIC (N. gonorrhoeae WHO Q) was 4 to 8 mg/L (≈ 6.61 to 13.2 µM). For the same molecule, the MIC (N. gonorrhoeae WHO K) was 4 to 8 mg/L (≈ 6.61 to 13.2 µM), the MIC (N. gonorrhoeae WHO G) was 1 to 2 mg/L (≈ 1.65 to 3.31 µM) and the MIC (N. gonorrhoeae FA1090) was 0.25 to 0.5 mg/L (≈ 0.413 to 0.827 µM). The MIC (N. gonorrhoeae H041) was 16 to 32 mg/L (≈ 26.5 to 52.9 µM).
NC1(CN2CCN(C(=O)N[C@H](C(=O)N[C@H]3Cc4cccc(C(=O)O)c4OB3O)c3c(F)cc(O)cc3F)C(=O)C2=O)CC1 (single isomer, unassigned) [Example 122] gave an MIC (E. coli D22) of 8 to 16 mg/L (≈ 13.3 to 26.6 µM), an MIC (P. aeruginosa ATCC 35151) of 2 to 4 mg/L (≈ 3.33 to 6.65 µM) and an MIC (E. coli AG100A) of 8 to 16 mg/L (≈ 13.3 to 26.6 µM). For the same molecule, the MIC (E. coli ATCC 25922) was 32 to 64 mg/L (≈ 53.2 to 106 µM), the MIC [1] was 32 to 64 mg/L (≈ 53.2 to 106 µM) and the MIC (N. gonorrhoeae WHO L) was greater than 64 mg/L. It also gave an MIC (N. gonorrhoeae WHO Z) greater than 64 mg/L, an MIC [2] greater than 64 mg/L and an MIC (N. gonorrhoeae WHO Q) greater than 64 mg/L. The MIC (N. gonorrhoeae WHO K) was greater than 64 mg/L, the MIC (N. gonorrhoeae WHO G) was greater than 64 mg/L and the MIC (N. gonorrhoeae FA1090) was 4 to 8 mg/L (≈ 6.65 to 13.3 µM). For the same molecule, the MIC (N. gonorrhoeae H041) was greater than 64 mg/L.
With NCCCN1CCN(C(=O)N[C@H](C(=O)N[C@H]2Cc3cccc(C(=O)O)c3OB2O)c2cccc(NS(N)(=O)=O)c2)C(=O)C1=O [Example 118, (R)-3-((S)-2-(4-(3-aminopropyl)-2,3-dioxopiperazine-1-carboxamido)-2-(3-(sulfamoylamino)phenyl)acetamido)-2-hydroxy-3,4-dihydro-2H-benzo[e][1,2]oxaborinine-8-carboxylic acid] the MIC (E. coli D22) was 8 to 16 mg/L (≈ 12.7 to 25.3 µM), the MIC (P. aeruginosa ATCC 35151) was 0.5 to 1 mg/L (≈ 0.792 to 1.58 µM) and the MIC (E. coli AG100A) was 2 to 4 mg/L (≈ 3.17 to 6.33 µM). For the same molecule, the MIC (E. coli ATCC 25922) was 32 to 64 mg/L (≈ 50.7 to 101 µM), the MIC [1] was greater than 128 mg/L and the MIC (N. gonorrhoeae WHO L) was greater than 64 mg/L. The MIC (N. gonorrhoeae WHO Z) was greater than 64 mg/L, the MIC [2] was greater than 64 mg/L and the MIC (N. gonorrhoeae WHO Q) was greater than 64 mg/L. The MIC (N. gonorrhoeae WHO K) was greater than 64 mg/L, the MIC (N. gonorrhoeae WHO G) was greater than 64 mg/L and the MIC (N. gonorrhoeae FA1090) was 4 to 8 mg/L (≈ 6.33 to 12.7 µM). It also gave an MIC (N. gonorrhoeae H041) greater than 64 mg/L.
